System: A549 human non-small cell lung cancer xenografts
Assay: Antitumor effect of single-dose ^125I-NM404 on tumor volume in SCID mice bearing A549 xenografts
Format: in vivo
Conditions: for effect on tumor volume compared to control animals: up to 10 weeks post-injection
From the text: FIG. 2, illustrates antitumor effect of single-dose treatment with ^125I-125-NM404 at doses of 50 (⊚), 150 (□), 250 (⋄) and 500 (∘) μCi in SCID mice bearing A549 human non-small cell lung cancer xenografts. In this figure, control animals show rapidly growing tumors over the 10-week assessment period.
FIG. 2 summarizes investigations into the efficacy of ^125I-NM404 treatment. These investigations provided assessments of tumor volume were made until 10 weeks post-injection or until no animal in the control group is alive, whatever came first. Summarizing the results, control animals show rapidly growing tumors over the 10-week assessment period. […] Tumor volumes are stable and same tumors appear “collapsed” (the tumor surface has caved in). Additionally, FIG. 3 illustrates that hair above the tumors fell off confirming substantial accumulation of radioactivity in these tumors.

C[N+](C)(C)CCOP(=O)([O-])OCCCCCCCCCCCCCCCCCCc1ccc([125I])cc1 [^125I-NM404]
effect on the tumor (appearance) (250 μCi, 4 weeks following injection): causes central necrosis | dose dependence of effect on tumor volume (doses 50-500 μCi): dose-linear effect | tumor therapy efficacy (following single injection and fractionated dosing): effective tumor therapy treatment | effect on tumor volume compared to control animals (single dose 50 μCi): did not show any difference | effect on tumor volume compared to control animals (single dose 250 μCi): substantial and prolonged treatment effect | effect on tumor volume compared to control animals (single dose 500 μCi): substantial and prolonged treatment effect

From patent US7893286B2, “Method for the synthesis of phospholipid ethers” (Cellectar, Inc., priority 2007, dated 2011)
